Key:
M. incognita J2 larvae = assay: Meloidogyne incognita in vitro assays (J2 movement); format: in vivo; settings: 45 μM, 2 days, relative to DMSO control
Procedure: M. incognita (Kofoid & White) Chitwood Race 1 (originally isolated in Maryland) was used for all experiments, and was maintained on pepper (Capsicum annuum L.) cv. PA-136 in a greenhouse as previously described^64. Infective J2 juveniles were collected as described in ref.65. The microwell dose-response experiments were carried out similarly to previously described protocols^64, 66. In brief, 100 J2s, in 10 μL of deionized water, were added to the wells of 96-well polystyrene plates, after which 190 μL of deionized water containing dissolved chemical, or DMSO alone, was added to each well. The chemicals were tested at 45 μM, and the final concentration of DMSO in each well was 0.5% (v/v). The wells were covered with a plastic adhesive strip, and the lids of the plates were sealed with parafilm. The plates were incubated at 25° C. The mobile fraction of worms was quantified by counting the number of mobile and immobile worms after 2 days of incubation, and then dividing the number of mobile worms by the total number of worms in the well. Three technical replicates were performed for each treatment, and an average value for the mobile fraction of worms was calculated across the three replicates. The percent effectiveness at inhibiting nematode movement was calculated by dividing the average value for the chemical treatment by the average value for the DMSO control, then subtracting this value from 1, and then multiplying by 100.

M. incognita = assay: Meloidogyne incognita infectivity assays (tomato roots in soil); format: in vivo; settings: 45 μM in soil, 8 weeks, eggs per mg root relative to DMSO control
Procedure: (§1) An M. incognita population originally collected from grape (Vitis vinifera) in Parlier, Calif., was used for all experiments, and they were maintained on tomato plants (Solanum lycopersicum ‘Rutgers’) as previously described^73. Infective J2 juveniles were collected as described in^73. For the infectivity assays, 90 grams of soil (1:1 sand:loam mix) was added to each cell of several 6-cell plastic garden packs. The soil was drenched with 18 mL of deionized water containing dissolved chemical or DMSO alone. 2,500 infective J2 juveniles were then added to the soil in 2 mL of deionized water, for a total water volume of 20 mL. The final concentration of the chemicals in water was 45 μM. The DMSO concentration varied from 0.1% to 0.8% (v/v) depending on the stock concentration of the chemical. The highest DMSO concentration was used as the DMSO control. The J2s were incubated in the soil and chemical for 24 hours, after which two- to three-week old tomato seedlings were transplanted into the soil (one plant per cell). Two replicates were performed for each chemical treatment, and four replicates were done for the DMSO controls. The whole experiment was replicated twice, in two different batches on two different days, for a total of four replicates for each chemical treatment, and eight replicates for the DMSO controls. Inoculated plants were grown for 8 weeks in a greenhouse, as described^73, under long-day conditions (16-h photoperiod) with 26/18° C. day/night temperatures. After 8 weeks, the plants were destructively harvested. The tops were removed and discarded, and roots were gently washed with water to remove adhering soil. Eggs were extracted by placing rinsed roots in 0.6% sodium hypochlorite and agitating at 300 rpm for 3 min. Roots were then rinsed over nested 250- and 25.4-μm sieves, with eggs collected from the latter and suspended in water. Roots were dried in a 65° C. oven for at least 24 hours, after which dry roots were weighed. The number of eggs from each plant root was counted on a dissection microscope using a haemocytometer, and the number of eggs per milligram of root was calculated by dividing the total egg number by the mass of the dried root material. An average was taken across the replicates performed on the same day, and then normalized to the DMSO control average. To calculate percent effectiveness at inhibiting reproduction, the normalized values were subtracted from 1, and then multiplied by 100. An average percent effectiveness value was then calculated across the two different batches carried out on different days.

HEK293 cells = assay: HEK cell culture and dose-response experiments; format: cell-based, Human; settings: non-target system; 48 hours, CellTiter-Blue
Procedure: HEK293 cells were seeded into 96-well plates, at 5000 cells per well, in 100 μL total volumes of DMEM/10% FBS/1% PS media and grown overnight at 37° C. in the presence of 5% CO2. Compounds (0.5 μL volumes from appropriate source plates) were then added to cells, and growth was continued for an additional 48 hours. Following growth, 10 μL of CellTiter-Blue Viability reagent (Promega) was added to each well, and plates were incubated for an additional 4 hours at 37° C. in the presence of 5% CO2. Fluorescence measurements (560 nm excitation/590 nm emission) were then performed using a CLARIOstar Plate Reader (BMG Labtech) to quantify reagent reduction and estimate cell viability.

tomato plants = assay: Root mass of tomato plants in the infectivity assays; format: in vivo, Solanum lycopersicum; settings: 45 μM
Procedure: as §1

C57BL/6 mice = assay: Mouse studies (oral dosing, pathologies); format: in vivo; settings: oral dose 50 mg/kg over several days
Procedure: Female C57BL/6 mice (bred in house, breeding pairs originally purchased from Charles River, Canada) 6-8 weeks of age were used for all experiments. Animal experiments were approved by the University of Calgary's Animal Care Committee. Infected mice were orally gavaged with a 200 third stage Heligmosomoides polygyrus larvae (maintained in house. Original stock was a gift from Dr. Allen Shostak, University of Alberta, Canada) and euthanized on day 22 post infection. […] Mice were treated orally with 5 daily doses of exemplary compound Ia (50 mg/kg resuspended in DMSO). Control mice were given DMSO only as a control.

M. chitwoodi = assay: Meloidogyne chitwoodi infectivity assays (tomato roots in soil); format: in vivo; settings: 45 μM in soil, 8 weeks, egg counts relative to DMSO control
Procedure: An M. incognita population originally collected from grape (Vitis vinifera) in Parlier, Calif., was used for all experiments, and they were maintained on tomato plants (Solanum lycopersicum ‘Rutgers’) as previously described^73. Infective J2 juveniles were collected as described in^73. For the infectivity assays, 90 grams of soil (1:1 sand:loam mix) was added to each cell of several 6-cell plastic garden packs. The soil was drenched with 18 mL of deionized water containing dissolved chemical or DMSO alone. 2,500 infective J2 juveniles were then added to the soil in 2 mL of deionized water, for a total water volume of 20 mL. The final concentration of the chemicals in water was 45 μM. The DMSO concentration varied from 0.1% to 0.8% (v/v) depending on the stock concentration of the chemical. The highest DMSO concentration was used as the DMSO control. The J2s were incubated in the soil and chemical for 24 hours, after which two- to three-week old tomato seedlings were transplanted into the soil (one plant per cell). […] The number of eggs from each plant root was counted on a dissection microscope using a haemocytometer, and the number of eggs per milligram of root was calculated by dividing the total egg number by the mass of the dried root material. […] An average percent effectiveness value was then calculated across the two different batches carried out on different days. […]

Arabidopsis thaliana = Arabidopsis thaliana greening experiments; format: in vivo; settings: 5, 15 and 45 micromolar, greening after 4 days
Procedure: Greening experiments were performed with Arabidopsis thaliana seeds of wild type Col-0; seeds were surface sterilized in bleach and plated onto 0.5×MS, 0.5% sucrose agar medium supplemented with compounds of interest at 5, 15 and 45 μM concentrations. After 4 d of stratification at 4° C., plates were transferred to a growth chamber (16 h/8 h, 150 μE/m^2) and greening recorded after 4 days. Pictures were recorded by camera (SONY a7s) with FE1.8/55 lens (FE 55 mm F1.8 ZA; SEL55F18Z). Experiments were performed in triplicate for each treatment.

Compound	% effectiveness at reducing M. incognita movement (M. incognita J2 larvae)	% effectiveness at inhibiting reproduction of M. incognita (M. incognita)	HEK Cells LC50 (HEK293 cells)	Normalized root mass (relative to DMSO control) (tomato plants)	obvious pathologies in comparison with the solvent control (C57BL/6 mice)	% effectiveness at inhibiting reproduction of M. chitwoodi (M. chitwoodi)	effect on health and greening of Arabidopsis thaliana plants (phytotoxicity) (Arabidopsis thaliana)
Cc1csc2nc(-c3ccccc3)cn12 [Compound Ie]	4.9%						
Clc1ccc(-c2cn3ccsc3n2)cc1 [Ia]		27.1%	inactive	1.3	did not exhibit any obvious pathologies	42.6%	some phytotoxicity and yellowing at the highest concentration
